# Patent US20090227556A1, “RECEPTOR TYROSINE KINASE INHIBITORS COMPRISING PYRIDINE AND PYRIMIDINE DERIVATIVES” (Eisai R&D Management Co., Ltd., priority 2008, published 2009)
# Experiments:
# RON = molecular target: T1, RON (Homo sapiens, UniProt Q04912); assay: Tyrosine kinase inhibition, mobility shift assay (MSA); type: biochemical; settings: recombinant human kinase
# T1 construct: purchased Carna Biosciences Inc. 08-152
# Method: (§1) A test compound was dissolved in dimethyl sulfoxide to make a 10 mM solution, which was stored in a dark place at 4° C. until use.
# (§2) Protein tyrosine kinases (recombinant human kinases) used in the study were the following products from Carna Biosciences Inc. (Kobe, Japan).
# (§3) VEGFR-1 (FLT 1) (product number: 08-189) VEGFR-3 (FLT 4) (product number: 08-190) RON (product number: 08-152) RET (product number: 08-159) KIT (product number: 08-156)
# (§4) Kinase activity was measured in a mobility shift assay (MSA) method (J. Biomolecular Screening, 11, 359-368, 2006) using QuickScout Screening Assist™ (Carna Biosciences Inc., commercial kit), and enzyme-linked immunoassay (ELISA).
# (§5) 5 μl of the test substance solution obtained by dissolving or suspending in an assay buffer (20 mM Hepes, 0.01% Triton X-100, 1 mM dithiothreitol, pH 7.4) (4× final concentration) or 5 μl of a solvent (4% dimethyl sulfoxide-assay buffer) was dispensed into a polypropylene 384-well plate (Greiner Bio-One, product number 781280). Then, 5 μl of QuickScout Screening Assist™ MSA in an ATP/substrate/metal solution was added. Additionally, 10 μl of the kinase solution diluted with the assay buffer was added to initiate a reaction. For a blank, only 10 μl of the assay buffer was added. The kinase concentration and reaction conditions were in accordance with the protocol of QuickScout Screening Assist™ MSA. Then, the reaction was terminated by addition of 60 μl of a termination buffer of the QuickScout Screening Assist™ MSA, and the amount of a substrate (S) and a phosphorylated substrate (P) in the reaction solution were determined using LabChip3000 (Caliper Life Science, Massachusetts, U.S.A.) in accordance with the protocol of QuickScout Screening Assist™ MSA. The amounts of the S and P were represented by respective separated peak height. […] It was on the condition that the signal was determined as P/(P+S).
# VEGFR-1 (FLT 1) = molecular target: T2, VEGFR-1 (FLT 1) (Homo sapiens, UniProt P17948); assay: as above; type: biochemical; settings: recombinant human kinase
# T2 construct: purchased Carna Biosciences Inc. 08-189
# T2 sequence (P17948 27-1338): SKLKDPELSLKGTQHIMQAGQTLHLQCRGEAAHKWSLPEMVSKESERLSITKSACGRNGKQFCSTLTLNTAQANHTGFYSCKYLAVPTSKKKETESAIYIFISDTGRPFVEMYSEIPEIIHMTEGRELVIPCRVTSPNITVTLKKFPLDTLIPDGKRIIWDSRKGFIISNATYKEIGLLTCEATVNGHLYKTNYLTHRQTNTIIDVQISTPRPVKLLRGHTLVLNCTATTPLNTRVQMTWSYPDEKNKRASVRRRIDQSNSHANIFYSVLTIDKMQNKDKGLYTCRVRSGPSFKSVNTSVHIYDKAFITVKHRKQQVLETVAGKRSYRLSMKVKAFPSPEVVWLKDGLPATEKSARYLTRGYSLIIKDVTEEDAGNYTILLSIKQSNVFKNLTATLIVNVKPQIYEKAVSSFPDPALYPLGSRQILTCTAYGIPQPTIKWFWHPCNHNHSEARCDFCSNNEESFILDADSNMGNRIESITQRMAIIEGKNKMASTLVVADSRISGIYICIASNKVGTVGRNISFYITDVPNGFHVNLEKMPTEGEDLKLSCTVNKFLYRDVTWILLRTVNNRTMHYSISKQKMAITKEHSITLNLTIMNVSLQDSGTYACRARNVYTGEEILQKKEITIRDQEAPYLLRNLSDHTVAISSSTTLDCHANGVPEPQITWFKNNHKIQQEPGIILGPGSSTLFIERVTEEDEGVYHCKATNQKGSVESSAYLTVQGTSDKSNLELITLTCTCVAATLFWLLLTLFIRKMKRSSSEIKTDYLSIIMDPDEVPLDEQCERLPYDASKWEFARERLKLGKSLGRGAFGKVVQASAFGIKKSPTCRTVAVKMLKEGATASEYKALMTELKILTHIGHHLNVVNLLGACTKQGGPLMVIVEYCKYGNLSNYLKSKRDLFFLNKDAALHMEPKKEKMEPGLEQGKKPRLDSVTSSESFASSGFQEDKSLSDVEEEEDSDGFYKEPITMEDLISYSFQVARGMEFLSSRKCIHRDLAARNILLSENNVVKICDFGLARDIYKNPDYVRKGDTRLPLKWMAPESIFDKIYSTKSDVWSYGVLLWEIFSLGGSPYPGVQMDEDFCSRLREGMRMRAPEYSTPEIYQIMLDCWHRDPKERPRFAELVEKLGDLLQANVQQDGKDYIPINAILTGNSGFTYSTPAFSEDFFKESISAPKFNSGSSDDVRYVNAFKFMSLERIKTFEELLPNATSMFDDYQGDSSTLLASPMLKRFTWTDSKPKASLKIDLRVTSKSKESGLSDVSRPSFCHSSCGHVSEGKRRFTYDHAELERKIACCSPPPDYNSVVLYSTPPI
# Method: as §1, §2, §3, §4, §5
# VEGFR-3 (FLT 4) = molecular target: T3, VEGFR-3 (FLT 4) (Homo sapiens, UniProt P35916); assay: as above; type: biochemical; settings: recombinant human kinase
# T3 construct: purchased Carna Biosciences Inc. 08-190
# T3 sequence (P35916 25-1363): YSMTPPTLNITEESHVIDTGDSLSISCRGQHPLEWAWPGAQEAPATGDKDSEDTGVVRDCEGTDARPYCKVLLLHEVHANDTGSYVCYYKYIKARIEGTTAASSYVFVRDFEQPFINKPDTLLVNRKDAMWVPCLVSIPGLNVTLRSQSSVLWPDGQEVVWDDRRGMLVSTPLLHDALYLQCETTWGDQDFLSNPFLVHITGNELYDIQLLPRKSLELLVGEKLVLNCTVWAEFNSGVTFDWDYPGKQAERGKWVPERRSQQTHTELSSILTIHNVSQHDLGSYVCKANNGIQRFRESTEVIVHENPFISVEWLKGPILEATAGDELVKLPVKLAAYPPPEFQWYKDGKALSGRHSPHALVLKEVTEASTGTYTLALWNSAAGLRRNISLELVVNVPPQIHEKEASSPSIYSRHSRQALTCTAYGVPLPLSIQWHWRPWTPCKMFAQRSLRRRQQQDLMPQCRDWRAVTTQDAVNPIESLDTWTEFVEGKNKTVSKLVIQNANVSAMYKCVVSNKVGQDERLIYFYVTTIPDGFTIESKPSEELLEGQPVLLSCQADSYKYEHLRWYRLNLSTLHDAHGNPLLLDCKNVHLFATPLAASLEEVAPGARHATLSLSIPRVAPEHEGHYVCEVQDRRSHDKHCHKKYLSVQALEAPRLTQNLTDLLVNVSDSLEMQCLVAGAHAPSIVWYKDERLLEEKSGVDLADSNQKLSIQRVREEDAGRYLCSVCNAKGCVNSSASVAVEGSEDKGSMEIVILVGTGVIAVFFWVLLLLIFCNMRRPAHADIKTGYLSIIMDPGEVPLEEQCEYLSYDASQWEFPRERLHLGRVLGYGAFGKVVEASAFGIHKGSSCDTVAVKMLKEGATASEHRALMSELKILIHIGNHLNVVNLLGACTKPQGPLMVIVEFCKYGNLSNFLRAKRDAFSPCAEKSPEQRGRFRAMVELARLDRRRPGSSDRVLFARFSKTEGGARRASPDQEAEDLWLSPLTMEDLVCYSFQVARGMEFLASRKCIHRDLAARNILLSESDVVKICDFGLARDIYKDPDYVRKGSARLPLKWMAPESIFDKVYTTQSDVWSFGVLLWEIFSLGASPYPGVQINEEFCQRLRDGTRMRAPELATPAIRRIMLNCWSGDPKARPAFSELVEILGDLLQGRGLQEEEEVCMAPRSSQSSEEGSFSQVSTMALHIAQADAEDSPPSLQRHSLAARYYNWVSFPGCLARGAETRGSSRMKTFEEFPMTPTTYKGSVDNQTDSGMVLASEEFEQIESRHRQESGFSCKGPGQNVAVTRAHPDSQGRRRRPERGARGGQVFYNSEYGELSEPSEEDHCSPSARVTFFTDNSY
# Method: as §1, §2, §3, §4, §5
# RET = molecular target: T4, RET (Homo sapiens, UniProt P07949); assay: as above; type: biochemical; settings: recombinant human kinase
# T4 construct: purchased Carna Biosciences Inc. 08-159
# Method: as §1, §2, §3, §4, §5
# [1] = system: Human umbilical vein endothelial cells (HUVECs); assay: Growth inhibitory activity on human umbilical vein endothelial cells stimulated by VEGF; type: cell-based; settings: HUVEC, 72 h, 3 days, Cell Counting Kit-8
# Method: Human umbilical vein endothelial cells (HUVECs) were isolated according to the reported method (Shin-seikagaku jikken kouza “saibou baiyou gijutu (Cell culturing techniques)” p. 197-202) and incubated to confluence using an EGM-2 culture medium (obtained from Sanko Junyaku Co., Ltd.) in a 5% CO2 incubator (37° C.). The HUVECs were collected by a trypsin-EDTA treatment and washed with a culture medium (2% fetal bovine serum-supplemented Human endothelial SFM basal medium, obtained from Invitrogen Corp.), followed by suspending them in the medium to count the cell number. By diluting it with the medium, a 2×10^4 cells/ml cell suspension was prepared. The cell suspension was dispensed into a 96-well plate (obtained from FALCON) by 100 μl each, and incubated at 37° C. in a 5% CO2 incubator overnight. After the incubation, 50 μl of the test substance diluted with the medium was added to each well, and 50 μL of 80 ng/ml human recombinant VEGF (obtained from R&D systems, Inc.) diluted with the medium was added and further incubated for 3 days in the 5% CO2 incubator (37° C.). After the incubation, 20 μl of Cell Counting Kit-8 (obtained from DOJINDO Laboratories) was added to each well, which were incubated for about 2 hours in the 5% CO2 incubator (37° C.). After the incubation, the absorbance of the each well was measured using a plate reader MTP-500 (Corona Electric Co., Ltd) with a measurement wavelength of 450 nm and a control wavelength of 660 nm. A ratio of absorbance (%) of each well with the test substance against the wells without the test substance was determined, and based on this ratio, the concentration of the test substance required to inhibit 50% of cell proliferation (IC50) was determined and the results are shown in Table 2.
# KIT = molecular target: T5, KIT (Homo sapiens, UniProt P10721); assay: Inhibitory action on KIT (ELISA); type: biochemical; settings: recombinant human kinase
# T5 construct: purchased Carna Biosciences Inc. 08-156
# T5 sequence (P10721 26-976): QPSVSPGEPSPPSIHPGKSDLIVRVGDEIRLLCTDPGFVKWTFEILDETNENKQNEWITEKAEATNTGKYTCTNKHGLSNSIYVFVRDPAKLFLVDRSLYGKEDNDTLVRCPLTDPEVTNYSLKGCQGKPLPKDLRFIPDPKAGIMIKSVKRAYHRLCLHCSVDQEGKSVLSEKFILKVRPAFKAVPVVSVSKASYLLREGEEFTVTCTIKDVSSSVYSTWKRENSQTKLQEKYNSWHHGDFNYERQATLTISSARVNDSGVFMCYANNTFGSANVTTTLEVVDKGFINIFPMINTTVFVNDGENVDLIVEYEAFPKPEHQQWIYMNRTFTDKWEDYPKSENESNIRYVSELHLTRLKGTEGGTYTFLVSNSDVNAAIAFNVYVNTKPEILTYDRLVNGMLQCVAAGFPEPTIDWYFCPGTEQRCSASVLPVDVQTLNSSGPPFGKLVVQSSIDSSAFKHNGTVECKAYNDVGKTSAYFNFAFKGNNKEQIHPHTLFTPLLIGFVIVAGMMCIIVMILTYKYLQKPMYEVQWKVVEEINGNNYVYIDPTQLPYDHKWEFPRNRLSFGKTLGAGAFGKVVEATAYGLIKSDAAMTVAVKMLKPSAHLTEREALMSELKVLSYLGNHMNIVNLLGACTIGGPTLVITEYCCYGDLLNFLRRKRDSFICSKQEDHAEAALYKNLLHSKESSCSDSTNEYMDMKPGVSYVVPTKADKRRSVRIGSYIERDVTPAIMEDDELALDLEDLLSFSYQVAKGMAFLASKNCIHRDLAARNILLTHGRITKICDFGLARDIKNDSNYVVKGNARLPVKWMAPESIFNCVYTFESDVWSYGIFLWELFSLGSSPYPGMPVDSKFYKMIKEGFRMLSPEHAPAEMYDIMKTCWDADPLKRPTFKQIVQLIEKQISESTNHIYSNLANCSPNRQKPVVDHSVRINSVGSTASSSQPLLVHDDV
# Method: as §1, §2, §3, §4
# 10 μl of the test substance solution obtained by dissolving or suspending in the assay buffer (15 mM Tris, 0.01% Tween 20, 2 mM DTT, pH 7.5) (4× final concentration), or 10 μl of a solvent (4% dimethyl sulfoxide-assay buffer) was dispensed into a DELFIA Streptavidin-coated clear plate (PerkinElmer Inc., product number 4009-0010). Then, 10 μl of an ATP/substrate/metal solution of QuickScout Screening Assist™ ELISA was added. Additionally, 20 μl of the kinase solution diluted with the assay buffer was added to initiate a reaction. For a blank, only 20 μl of the assay buffer was added. The assay method was in accordance with the protocol of QuickScout Screening Assist™ ELISA. After the reaction, the absorbance at 450 nm in each well was measured using SpectraMax (Molecular Devices, California, U.S.A).
# T1 sequence (Q04912 25-1400): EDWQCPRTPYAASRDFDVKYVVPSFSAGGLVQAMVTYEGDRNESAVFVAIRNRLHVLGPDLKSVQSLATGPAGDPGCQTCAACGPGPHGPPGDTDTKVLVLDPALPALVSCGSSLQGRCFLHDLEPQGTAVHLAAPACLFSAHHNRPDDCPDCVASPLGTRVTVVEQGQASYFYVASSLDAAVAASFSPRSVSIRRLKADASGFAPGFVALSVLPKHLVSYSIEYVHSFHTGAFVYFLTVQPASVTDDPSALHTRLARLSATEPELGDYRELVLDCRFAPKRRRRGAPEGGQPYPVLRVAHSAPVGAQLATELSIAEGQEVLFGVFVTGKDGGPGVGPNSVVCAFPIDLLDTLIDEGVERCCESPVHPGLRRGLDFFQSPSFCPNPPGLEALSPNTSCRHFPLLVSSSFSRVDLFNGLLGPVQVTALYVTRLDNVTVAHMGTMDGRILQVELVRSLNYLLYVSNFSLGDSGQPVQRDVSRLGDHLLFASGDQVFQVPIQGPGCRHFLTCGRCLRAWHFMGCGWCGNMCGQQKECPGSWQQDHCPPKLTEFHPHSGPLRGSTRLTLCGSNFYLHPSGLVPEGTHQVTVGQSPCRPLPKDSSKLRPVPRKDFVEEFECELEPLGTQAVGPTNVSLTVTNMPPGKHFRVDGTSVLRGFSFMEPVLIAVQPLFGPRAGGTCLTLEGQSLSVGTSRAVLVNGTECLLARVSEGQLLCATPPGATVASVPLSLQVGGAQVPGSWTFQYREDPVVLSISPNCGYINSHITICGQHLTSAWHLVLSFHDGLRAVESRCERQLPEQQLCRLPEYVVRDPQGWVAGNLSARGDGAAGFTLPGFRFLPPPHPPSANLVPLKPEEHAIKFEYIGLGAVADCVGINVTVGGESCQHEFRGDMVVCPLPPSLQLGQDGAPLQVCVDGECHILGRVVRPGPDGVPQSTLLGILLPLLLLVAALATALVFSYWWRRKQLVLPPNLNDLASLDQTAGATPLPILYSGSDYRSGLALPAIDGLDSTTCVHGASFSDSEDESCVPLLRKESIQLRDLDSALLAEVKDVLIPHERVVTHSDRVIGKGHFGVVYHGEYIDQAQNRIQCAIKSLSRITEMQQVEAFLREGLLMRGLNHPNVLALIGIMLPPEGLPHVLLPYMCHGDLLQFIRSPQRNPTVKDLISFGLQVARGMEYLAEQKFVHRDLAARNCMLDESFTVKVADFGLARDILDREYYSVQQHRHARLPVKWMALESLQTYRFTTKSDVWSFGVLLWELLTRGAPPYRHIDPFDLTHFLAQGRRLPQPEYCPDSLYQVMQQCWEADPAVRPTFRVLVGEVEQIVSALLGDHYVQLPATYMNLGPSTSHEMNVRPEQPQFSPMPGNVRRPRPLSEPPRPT
Compound,IC50 (RON) [µM],IC50 (VEGFR-1 (FLT 1)) [µM],IC50 (VEGFR-3 (FLT 4)) [µM],IC50 (RET) [µM],IC50 (KIT) [µM],IC50 [1] [µM]
"CN1CCN(C2CCN(C(=O)Nc3cc(Oc4cc(F)c(NC(=O)C5(C(=O)Nc6ccc(F)cc6)CC5)cc4F)ccn3)CC2)CC1 [N-(2,5-Difluoro-4-{[2-({[4-(4-methylpiperazin-1-yl)piperidin-1-yl]carbonyl}amino)pyridin-4-yl]oxy}phenyl)-N′-(4-fluorophenyl)cyclopropane-1,1-dicarboxamide]",0.0024,0.021,0.022,0.038,0.35,0.02
"CN1CCC(N(C)C(=O)Nc2cc(Oc3cc(F)c(NC(=O)C4(C(=O)Nc5ccc(F)cc5)CC4)cc3F)ccn2)CC1 [N-(2,5-Difluoro-4-{[2-({[methyl(1-methylpiperidin-4-yl)amino]carbonyl}amino)pyridin-4-yl]oxy}phenyl)-N′-(4-fluorophenyl)cyclopropane-1,1-dicarboxamide]",0.0018,0.012,0.011,0.036,0.56,0.021
"O=C(Nc1cc(Oc2ccc(NC(=O)C3(C(=O)Nc4ccc(F)cc4)CC3)c(F)c2)ccn1)N1CCC1 [N-[4-({2-[(Azetidin-1-ylcarbonyl)amino]pyridin-4-yl}oxy)-2-fluorophenyl]-N′-(4-fluorophenyl)cyclopropane-1,1-dicarboxamide]",0.026,0.071,0.036,0.099,0.38,0.038

# Now from value to compound, other results behind:
IC50 (RON) [µM],IC50 (VEGFR-1 (FLT 1)) [µM],IC50 (VEGFR-3 (FLT 4)) [µM],IC50 (RET) [µM],IC50 (KIT) [µM],Compound,IC50 [1] [µM]
0.0026,0.014,0.0062,0.028,0.14,"O=C(Nc1cc(Oc2cc(F)c(NC(=O)C3(C(=O)Nc4ccc(F)cc4)CC3)cc2F)ccn1)N1CC(CO)C1 [N-(2,5-Difluoro-4-{[2-({[3-(hydroxymethyl)azetidin-1-yl]carbonyl}amino)pyridin-4-yl]oxy}phenyl)-N′-(4-fluorophenyl)cyclopropane-1,1-dicarboxamide]",0.0055
0.0046,0.026,0.01,0.044,0.37,"O=C(Nc1cc(Oc2cc(F)c(NC(=O)C3(C(=O)Nc4ccc(F)cc4)CC3)cc2F)ccn1)N1CC(O)C1 [N-{2,5-Difluoro-4-[(2-{[(3-hydroxyazetidin-1-yl)carbonyl]amino}pyridin-4-yl)oxy]phenyl}-N′-(4-fluorophenyl)cyclopropane-1,1-dicarboxamide]",0.015
